Reference: US20260166039A1 (SCHRÖDINGER, INC., priority 2022, published 2026)

What was measured:
Wee1 kinase domain = molecular target: T1, Wee1 kinase domain (Homo sapiens, UniProt P30291); test: Wee1 Kinase Biochemical Assay (ADP-Glo); details: class symbols; 1 nM Wee1 enzyme, 15 uM ATP, 4 hours at 25° C.
T1 construct: Wee1 kinase domain was purchased from Carna (catalog #05-177); purchased Carna 05-177
Outline: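 1 nM enzyme; 15 uM ATP; 2 ng/mL poly(Lys,Tyr 4:1); 40 mM Tris-HCl, 20 mM MgCl2, 0.1 mg/mL BSA, 2 mM DTT; 4 h, 25 °C; ADP-Glo; % inhibition vs DMSO and saturating positive-control wells.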

[1] = tested on: phosphorylation of Cdc2 Y15 (Wee1 substrate) in A427 cells; test: Phosphorylated Cdc2 MSD Electrochemiluminescence Assay; assay type: cell-based; details: Homo sapiens, A-427, class symbols, read-out: A427 pCDC2 MSD IC50
Outline: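 A427 cells (RPMI 1640, 10% FBS) treated 20 h after plating with 3-fold serial compound dilutions, in duplicate, 37 °C, 5% CO2; total incubation 6 h. Lysate Cdc2 pY15 read by MSD electrochemiluminescence sandwich immunoassay; % remaining signal normalised to DMSO (high) and reference Wee1 inhibitor (low) controls.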

T1 sequence (P30291 299-569 limits assumed): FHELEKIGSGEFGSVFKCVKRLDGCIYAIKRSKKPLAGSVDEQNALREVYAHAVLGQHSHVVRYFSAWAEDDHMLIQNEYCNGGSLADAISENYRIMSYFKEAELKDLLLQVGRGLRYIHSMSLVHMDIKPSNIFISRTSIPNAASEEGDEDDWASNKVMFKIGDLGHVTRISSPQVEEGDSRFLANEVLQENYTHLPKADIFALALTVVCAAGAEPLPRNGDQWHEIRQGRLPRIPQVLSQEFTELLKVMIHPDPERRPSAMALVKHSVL

CN1C[C@@H]2C[C@H]1CN2c1ccc(Nc2ncc3c(n2)N(c2cccc(N4CCOC4=O)n2)[C@@H]2CC(C)(C)OC[C@]32C)cc1 (single isomer, unassigned) [Example 595] was tested, and the IC50 (Wee1 kinase domain) was < 0.01 µM and the IC50 [1] was 0.1 to 1 µM.
Cc1cc(Nc2ncc3c(n2)N(c2cccc(N4CCOC4=O)n2)[C@@H]2CC(C)(C)OC[C@]32C)ccc1C1CCN(C)CC1 (single isomer, unassigned) [Example 597] was tested, and the IC50 (Wee1 kinase domain) was < 0.01 µM and the IC50 [1] was 0.1 to 1 µM.
C[C@H]1CN(c2cccc(N3c4nc(Nc5ccc(N6CCN(C)CC6)cc5)ncc4[C@@]4(C)COC(C)(C)C[C@@H]34)n2)C(=O)O1 (single isomer, unassigned) [Example 599] was tested, and the IC50 (Wee1 kinase domain) was < 0.01 µM and the IC50 [1] was 0.1 to 1 µM.
CN1CC[C@H](c2ccc(Nc3ncc4c(n3)N(c3cccc(N5CCOC5=O)n3)[C@@H]3CC(C)(C)OC[C@]43C)cc2)C1 (single isomer, unassigned) [Example 602] was tested, and the IC50 (Wee1 kinase domain) was < 0.01 µM and the IC50 [1] was 0.1 to 1 µM.
In the case of CN1CC[C@@H](c2ccc(Nc3ncc4c(n3)N(c3cccc(N5CCOC5=O)n3)[C@@H]3CC(C)(C)OC[C@]43C)cc2)C1 (single isomer, unassigned) [Example 605], the IC50 (Wee1 kinase domain) is reported as < 0.01 µM and the IC50 [1] is reported as 0.1 to 1 µM.
In the case of CC1(C)C[C@H]2N(c3cccc(N4CCOC4=O)n3)c3nc(Nc4ccc([C@@H]5CCNC5)cc4)ncc3[C@@]2(C)CO1 (single isomer, unassigned) [Example 607], the IC50 (Wee1 kinase domain) is reported as < 0.01 µM and the IC50 [1] is reported as 0.1 to 1 µM.
CC1(C)C[C@H]2N(c3cccc(N4CCOC4=O)n3)c3nc(Nc4ccc([C@H]5CCNC5)cc4)ncc3[C@@]2(C)CO1 (single isomer, unassigned) [Example 608] was tested, and the IC50 (Wee1 kinase domain) was < 0.01 µM and the IC50 [1] was 0.1 to 1 µM.
For C[C@H]1COC(=O)N1c1cccc(N2c3nc(Nc4ccc(N5CCN(C)CC5)cc4)ncc3[C@@]3(C)COCC[C@@H]23)n1 (single isomer, unassigned) [Example 702], the IC50 (Wee1 kinase domain) was < 0.01 µM and the IC50 [1] was 0.1 to 1 µM.
With CN1CC2CC1CN2c1ccc(Nc2ncc3c(n2)N(c2cccc(N=S(C)(C)=O)c2)C2CC(C)(C)OCC32C)cc1 (single isomer, unassigned) [Example 712] the IC50 (Wee1 kinase domain) was < 0.01 µM and the IC50 [1] was 1 to 10 µM.
For CN1CCN(c2ccc(Nc3ncc4c(n3)N(c3ccn(C)n3)[C@@H]3CC(C)(C)OC[C@]43C)cc2)CC1 (single isomer, unassigned) [Example 717], the IC50 (Wee1 kinase domain) was < 0.01 µM and the IC50 [1] was 0.1 to 1 µM.
With CN1CCN(c2ccc(Nc3ncc4c(n3)N(c3ccn(C(F)(F)F)n3)[C@@H]3CC(C)(C)OC[C@]43C)cc2)CC1 (single isomer, unassigned) [Example 719] the IC50 (Wee1 kinase domain) was < 0.01 µM and the IC50 [1] was 1 to 10 µM.
CN1CCN(c2ccc(Nc3ncc4c(n3)N(c3ccn(C(F)F)n3)[C@@H]3CC(C)(C)OC[C@]43C)cc2)CC1 (single isomer, unassigned) [Example 720] was tested, and the IC50 (Wee1 kinase domain) was < 0.01 µM and the IC50 [1] was 0.1 to 1 µM.
For CC(C)n1ccc(N2c3nc(Nc4ccc(N5CCN(C)CC5)cc4)ncc3[C@@]3(C)COC(C)(C)C[C@@H]23)n1 (single isomer, unassigned) [Example 721], the IC50 (Wee1 kinase domain) was < 0.01 µM and the IC50 [1] was 0.1 to 1 µM.
In the case of CN1CCN(c2ccc(Nc3ncc4c(n3)N(c3ccccn3)[C@@H]3CC(C)(C)OC[C@]43C)cc2)CC1 (single isomer, unassigned) [Example 722], the IC50 (Wee1 kinase domain) is reported as < 0.01 µM and the IC50 [1] is reported as 0.1 to 1 µM.
For C[C@H]1CCC(=O)N1c1cccc(N2c3nc(Nc4ccc(N5CC6(CN(C)C6)C5)cc4)ncc3[C@@]3(C)COC(C)(C)C[C@@H]23)n1 (single isomer, unassigned) [Example 725], the IC50 (Wee1 kinase domain) was < 0.01 µM and the IC50 [1] was 0.1 to 1 µM.
In the case of CN1CCN(c2ccc(Nc3ncc4c(n3)N(c3nccs3)[C@@H]3CC(C)(C)OC[C@]43C)cc2)CC1 (single isomer, unassigned) [Example 726], the IC50 (Wee1 kinase domain) is reported as < 0.01 µM and the IC50 [1] is reported as 0.1 to 1 µM.
With C[C@H]1CCC(=O)N1c1cccc(N2c3nc(Nc4ccc(C5CN(C)C5)cc4)ncc3[C@@]3(C)COC(C)(C)C[C@@H]23)n1 (single isomer, unassigned) [Example 727] the IC50 (Wee1 kinase domain) was < 0.01 µM and the IC50 [1] was < 0.1 µM.
CN1CCN(c2ccc(Nc3ncc4c(n3)N(c3cccc(N5C(=O)OCC5(C)C)n3)[C@@H]3CC(C)(C)OC[C@]43C)cc2)CC1 (single isomer, unassigned) [Example 728] was tested, and the IC50 (Wee1 kinase domain) was < 0.01 µM and the IC50 [1] was 0.1 to 1 µM.
In the case of CN1CCN(c2ccc(Nc3ncc4c(n3)N(c3cccc(N5C(=O)CCC5(C)C)n3)[C@@H]3CC(C)(C)OC[C@]43C)cc2)CC1 (single isomer, unassigned) [Example 729], the IC50 (Wee1 kinase domain) is reported as < 0.01 µM and the IC50 [1] is reported as 0.1 to 1 µM.
CNCc1ccc(Nc2ncc3c(n2)N(c2cccc(N4C(=O)CC[C@@H]4C)n2)[C@@H]2CC(C)(C)OC[C@]32C)cc1 (single isomer, unassigned) [Example 730] was tested, and the IC50 (Wee1 kinase domain) was < 0.01 µM and the IC50 [1] was 0.1 to 1 µM.
CN1CCN(c2ccc(Nc3ncc4c(n3)N(c3ccn(C5CC5)n3)[C@@H]3CC(C)(C)OC[C@]43C)cc2)CC1 (single isomer, unassigned) [Example 739] was tested, and the IC50 (Wee1 kinase domain) was < 0.01 µM and the IC50 [1] was 1 to 10 µM.
CN1CCN(c2ccc(Nc3ncc4c(n3)N(c3ccn(C5COC5)n3)[C@@H]3CC(C)(C)OC[C@]43C)cc2)CC1 (single isomer, unassigned) [Example 742] was tested, and the IC50 (Wee1 kinase domain) was < 0.01 µM and the IC50 [1] was 1 to 10 µM.
For CCn1ccc(N2c3nc(Nc4ccc(N5CCN(C)CC5)cc4)ncc3[C@@]3(C)COC(C)(C)C[C@@H]23)n1 (single isomer, unassigned) [Example 744], the IC50 (Wee1 kinase domain) was < 0.01 µM and the IC50 [1] was 1 to 10 µM.
In the case of CC1(C)C[C@H]2N(c3cccc(N=S(C)(C)=O)n3)c3nc(N)ncc3[C@@]2(C)CO1 (single isomer, unassigned) [Example 746], the IC50 (Wee1 kinase domain) is reported as < 0.01 µM and the IC50 [1] is reported as 0.1 to 1 µM.
For C[C@H]1CCC(=O)N1c1cccc(N2c3nc(Nc4ccc(N5C[C@H]6C[C@@H](C5)N6C)cc4)ncc3[C@@]3(C)COC(C)(C)C[C@@H]23)n1 (single isomer, unassigned) [Example 748], the IC50 (Wee1 kinase domain) was < 0.01 µM and the IC50 [1] was 0.1 to 1 µM.
CN1CCN(c2ccc(Nc3ncc4c(n3)N(c3cccc(S(C)(=O)=O)n3)[C@@H]3CC(C)(C)OC[C@]43C)cc2)CC1 (single isomer, unassigned) [Example 749] was tested, and the IC50 (Wee1 kinase domain) was < 0.01 µM and the IC50 [1] was 0.1 to 1 µM.
CN=[S@](C)(=O)c1cccc(N2c3nc(Nc4ccc(C5CCN(C)CC5)cc4)ncc3[C@@]3(C)COC(C)(C)C[C@@H]23)n1 (single isomer, unassigned) [Example 751] was tested, and the IC50 (Wee1 kinase domain) was < 0.01 µM and the IC50 [1] was 0.1 to 1 µM.
CN=[S@@](C)(=O)c1cccc(N2c3nc(Nc4ccc(C5CCN(C)CC5)cc4)ncc3[C@@]3(C)COC(C)(C)C[C@@H]23)n1 (single isomer, unassigned) [Example 752] was tested, and the IC50 (Wee1 kinase domain) was < 0.01 µM and the IC50 [1] was 0.1 to 1 µM.
In the case of CN1CCN(c2ccc(Nc3ncc4c(n3)N(c3cccc(P(C)(C)=O)n3)[C@@H]3CC(C)(C)OC[C@]43C)cc2)CC1 (single isomer, unassigned) [Example 753], the IC50 (Wee1 kinase domain) is reported as < 0.01 µM and the IC50 [1] is reported as 0.1 to 1 µM.
CN1CC(c2ccc(Nc3ncc4c(n3)N(c3cccc(N=S5(=O)CCCC5)n3)[C@@H]3CC(C)(C)OC[C@]43C)cc2)C1 (single isomer, unassigned) [Example 754] was tested, and the IC50 (Wee1 kinase domain) was < 0.01 µM and the IC50 [1] was < 0.1 µM.
In the case of CN1CCC(c2ccc(Nc3ncc4c(n3)N(c3cccc(S(C)(=O)=O)n3)[C@@H]3CC(C)(C)OC[C@]43C)cc2)CC1 (single isomer, unassigned) [Example 757], the IC50 (Wee1 kinase domain) is reported as < 0.01 µM and the IC50 [1] is reported as 0.1 to 1 µM.
In the case of COc1cccc(N2c3nc(Nc4ccc(N5CCN(C)CC5)cc4)ncc3[C@@]3(C)COC(C)(C)C[C@@H]23)n1 (single isomer, unassigned) [Example 758], the IC50 (Wee1 kinase domain) is reported as < 0.01 µM and the IC50 [1] is reported as 0.1 to 1 µM.
In the case of Cc1cccc(N2c3nc(Nc4ccc(N5CCN(C)CC5)cc4)ncc3[C@@]3(C)COC(C)(C)C[C@@H]23)n1 (single isomer, unassigned) [Example 759], the IC50 (Wee1 kinase domain) is reported as < 0.01 µM and the IC50 [1] is reported as 0.1 to 1 µM.
In the case of CN=[S@@](C)(=O)c1cccc(N2c3nc(Nc4ccc(N5CCN(C)CC5)cc4)ncc3[C@@]3(C)COC(C)(C)C[C@@H]23)n1 (single isomer, unassigned) [Example 765], the IC50 (Wee1 kinase domain) is reported as < 0.01 µM and the IC50 [1] is reported as 0.1 to 1 µM.
For CN=[S@](C)(=O)c1cccc(N2c3nc(Nc4ccc(N5CCN(C)CC5)cc4)ncc3[C@@]3(C)COC(C)(C)C[C@@H]23)n1 (single isomer, unassigned) [Example 766], the IC50 (Wee1 kinase domain) was < 0.01 µM and the IC50 [1] was 0.1 to 1 µM.
CNCc1cccc(N2c3nc(Nc4ccc(-n5nccn5)cc4)ncc3[C@@]3(C)COC(C)(C)C[C@@H]23)n1 (single isomer, unassigned) [Example 767] was tested, and the IC50 (Wee1 kinase domain) was < 0.01 µM and the IC50 [1] was 0.1 to 1 µM.
In the case of CC1(C)C[C@H]2N(c3cccc(N=S(C)(C)=O)n3)c3nc(NC(=O)OC4CCOCC4)ncc3[C@@]2(C)CO1 (single isomer, unassigned) [Example 772], the IC50 (Wee1 kinase domain) is reported as < 0.01 µM and the IC50 [1] is reported as 0.1 to 1 µM.
In the case of CN1CCN(c2ccc(Nc3ncc4c(n3)N(c3cccc(C5CC5)n3)[C@@H]3CC(C)(C)OC[C@]43C)cc2)CC1 (single isomer, unassigned) [Example 774], the IC50 (Wee1 kinase domain) is reported as < 0.01 µM and the IC50 [1] is reported as 0.1 to 1 µM.
CN1CC2(C1)CN(c1ccc(Nc3ncc4c(n3)N(c3cccc(P(C)(C)=O)n3)[C@@H]3CC(C)(C)OC[C@]43C)cc1)C2 (single isomer, unassigned) [Example 775] was tested, and the IC50 (Wee1 kinase domain) was < 0.01 µM and the IC50 [1] was 0.1 to 1 µM.
C[C@H]1CCC(=O)N1c1cccc(N2c3nc(Nc4ccc(N5CC6(CN(C)C6)C5)cc4)ncc3[C@@]3(C)COCC[C@@H]23)n1 (single isomer, unassigned) [Example 776] was tested, and the IC50 (Wee1 kinase domain) was < 0.01 µM and the IC50 [1] was 0.1 to 1 µM.
With Cn1ccc(Nc2ncc3c(n2)N(c2cccc(P(C)(C)=O)n2)[C@@H]2CC(C)(C)OC[C@]32C)cc1=O (single isomer, unassigned) [Example 779] the IC50 (Wee1 kinase domain) was < 0.01 µM and the IC50 [1] was < 0.1 µM.
